Data published in publication PMC9315884, “New Membrane Active Antibacterial and Antiviral Amphiphiles Derived from Heterocyclic Backbone of Pyridinium-4-Aldoxime” (Pharmaceuticals, 2022).
“And” between values parts separate entries of the source, which are not always exact repeats. Identical values can stand only once. Counter-ions that a name gives are not always drawn. Like-named read-outs stand apart in the source and are kept apart here.

Key:
[1] = test system: Bacillus cereus ATCC14579; assay: Broth microdilution assay (MIC); assay type: cell-based
Procedure: (§1) The antibacterial activity of all compounds was evaluated by determining the minimum inhibitory concentration (MIC), which is defined as the lowest concentration of the compound at which no visible bacterial growth is detected. The compounds were tested against representatives of Gram-positive and Gram-negative strains, including the ESKAPE bacterium Staphylococcus aureus ATCC25923 and the clinical isolate of methicillin-resistant S. aureus (MRSA), which are known for their pathogenicity.
(§2) All microbial strains were maintained at ™80 °C for long-term storage and subcultured on Mueller-Hinton (MH) agar (Biolife, Italy) prior to broth microdilution experiments. The MH plates were stored at +4 °C for no longer than one month.
(§3) Antibacterial activity was evaluated using the Broth Microdilution Assay according to the Clinical and Laboratory Standard Institute’s Methods for Dilution Antimicrobial Susceptibility Test for Bacteria That Grow Aerobically; Approved Standard-Tenth Edition.
(§4) The stock solution of QAS (10 mg/mL) was prepared in 4% DMSO. Then, 100 µL of the tested QAS was added to the first well of the microtiter plate. Twofold serial dilutions in Muller-Hinton broth were performed over the entire plate at a concentration range of 5 mg/mL to 5 µg/mL. […] The minimum inhibitory concentration (MIC) was determined as the lowest concentration at which no visually detectable bacterial growth occurred in the wells.

[2] = test system: Enterococcus faecalis ATCC29212; assay: Broth microdilution assay (MIC); assay type: cell-based
Procedure: as §1, §2, §3, §4

[3] = test system: Staphylococcus aureus ATCC25923; assay: Broth microdilution assay (MIC); assay type: cell-based; settings: Staphylococcus aureus
Procedure: as §1, §2, §3, §4

[4] = test system: Listeria monocytogenes ATCC7644; assay: Broth microdilution assay (MIC); assay type: cell-based
Procedure: as §1, §2, §3, §4

[5] = test system: Escherichia coli ATCC25922; assay: Broth microdilution assay (MIC); assay type: cell-based
Procedure: as §1, §2, §3, §4

[6] = test system: Pseudomonas aeruginosa ATCC27853; assay: Broth microdilution assay (MIC); assay type: cell-based
Procedure: as §1, §2, §3, §4

[7] = test system: methicillin-resistant Staphylococcus aureus clinical strain MRSA; assay: Broth microdilution assay (MIC); assay type: cell-based
Procedure: as §1
(§5) The collection included five Gram-positive strains, including Staphylococcus aureus (ATCC 25923 and a methicillin-resistant Staphylococcus aureus clinical strain MRSA), Bacillus cereus ATCC 14579, Enterococcus faecalis ATCC 29212, and Listeria monocytogenes ATCC 7644; and three Gram-negative strains: Escherichia coli ATCC 25922, Pseudomonas aeruginosa ATCC 27853 and the food isolate Salmonella enterica. All microbial strains were maintained at ™80 °C for long-term storage and subcultured on Mueller-Hinton (MH) agar (Biolife, Italy) prior to broth microdilution experiments. The MH plates were stored at +4 °C for no longer than one month.
as §3
(§6) The stock solution of QAS (10 mg/mL) was prepared in 4% DMSO. Then, 100 µL of the tested QAS was added to the first well of the microtiter plate. Twofold serial dilutions in Muller-Hinton broth were performed over the entire plate at a concentration range of 5 mg/mL to 5 µg/mL. To each well, 50 µL of mid-exponentially grown inoculum containing 10^5 CFU/mL in Mueller-Hinton broth was added and incubated at 37 °C for 18 hours. The minimum inhibitory concentration (MIC) was determined as the lowest concentration at which no visually detectable bacterial growth occurred in the wells.

[8] = test system: Salmonella enterica food isolate; assay: Broth microdilution assay (MIC); assay type: cell-based; settings: S. enterica food isolate
Procedure: as §1, §5, §3, §6

[9] = test system: Tobacco mosaic virus (TMV); assay: Antiphytoviral activity assay (local lesions on host plant leaves); assay type: in vivo, Tobacco mosaic virus on Datura stramonium; settings: Datura stramonium leaves, compound 100 µg/mL inoculated simultaneously with TMV
Procedure: Leaves of Nicotiana tabacum L. cv. Samsun plants systemically infected with Tobacco mosaic virus (TMV) were ground in 0.06 mol/L phosphate buffer, pH 7.0 (1:1, w/v) to prepare virus inocula. […] Leaves of the local host Datura stramonium L. were dusted with silicon carbide (Sigma-Aldrich, St. Louis, MO, USA) before virus inoculation, and the inoculum was diluted with inoculation buffer to obtain 5–20 lesions per inoculated leaf. Experiments were performed when the experimental plants reached the 4–6 leaf stage.
The tested QAS (10 mg/mL) were dissolved in 4% DMSO and added to the virus inocula at a final concentration of 100 µg/mL. DMSO was added to the control virus inocula at the same concentration. The control and treated plants were then rubbed with the prepared inocula and the antiviral activity of the tested compounds was evaluated by the percentage inhibition of the number of local lesions on the leaves of the treated and control plants as described in [40]. The obtained data were analyzed in Excel (Microsoft Office) and significant differences were determined by t-test.

[10] = ATCC25922, 18 h, E. coli ATCC25922
[11] = 18 h, B. cereus ATCC14579, read-out: MIC
[12] = 18 h, E. faecalis ATCC29212, read-out: MIC
[13] = S. aureus ATCC25923, 18 h, 37 °C, read-out: MIC
[14] = 18 h, L. monocytogenes ATCC7644, read-out: MIC
[15] = ATCC25922, 18 h, E. coli ATCC25922, read-out: MIC
[16] = 18 h, P. aeruginosa ATCC27853, read-out: MIC

| SMILES | melting point | MIC ([1]; ATCC14579, 18 h) | MIC ([2]; ATCC29212, 18 h) | MIC ([3]; ATCC25923, 18 h) | MIC ([4]; ATCC7644, 18 h) | MIC ([6]; ATCC27853, 18 h) | MIC ([7]; MRSA, 18 h) | MIC ([8]; 18 h) | MIC [1, 11] | MIC [2, 12] | MIC [3, 13] | MIC [4, 14] | MIC [5, 15] | MIC [6, 16] | other results |
| --- | --- | --- | --- | --- | --- | --- | --- | --- | --- | --- | --- | --- | --- | --- | --- |
| ON=Cc1cc[n+](Cc2ccc(F)cc2)cc1.[Br-] [Py-BnF, N-p-fluorobenzyl-4-hydroxyiminomethylpyridinium bromide] | 181 to 183 °C | > 5000 µg/mL | > 5000 µg/mL and > 16100 µM | 5000 µg/mL | > 5000 µg/mL and > 16100 µM | > 5000 µg/mL and > 16100 µM | > 5000 µg/mL | > 5000 µg/mL and > 16100 µM | – | – | – | – | – | – | MIC [5, 10]: 630 µg/mL |
| ON=Cc1cc[n+](Cc2ccc(OC(F)(F)F)cc2)cc1 (as salt: bromide) [Py-BnOCF3, N-(p-trifluoromethoxy)benzyl-4-hydroxyiminomethylpyridinium bromide] | 175 to 176 °C | – | – | – | – | – | – | – | – | – | – | – | – | – | – |
| ON=Cc1cc[n+](Cc2ccc(Br)cc2)cc1 [Py-BnBr] | – | – | – | – | – | – | 1250 µg/mL | 630 µg/mL | 2500 µg/mL | 2500 µg/mL and 6720 µM | 1250 µg/mL | 2500 µg/mL and 6720 µM | 160 µg/mL | 5000 µg/mL and 13400 µM | – |
| Cc1ccc(C[n+]2ccc(C=NO)cc2)cc1 [Py-BnCH3] | – | – | – | – | – | – | 5000 µg/mL | 630 µg/mL | 5000 µg/mL | 2500 µg/mL and 8140 µM | 2500 µg/mL | 1250 µg/mL and 4070 µM | 5000 µg/mL and 16300 µM | > 5000 µg/mL and > 16300 µM | – |
| O=[N+]([O-])c1ccc(C[n+]2ccc(C=NO)cc2)cc1 [Py-BnNO2] | – | > 5000 µg/mL | > 5000 µg/mL and > 14800 µM | 5000 µg/mL | > 5000 µg/mL and > 14800 µM | > 5000 µg/mL and > 14800 µM | > 5000 µg/mL | 5000 µg/mL and 14800 µM | – | – | – | – | – | – | MIC ([5]; ATCC25922, 18 h): 2500 µg/mL and 7390 µM |
| CCCCCCCCCCCC[N+](C)(C)Cc1ccccc1.[Br-] [BAB, benzalkonium bromide, reference compound] | – | – | – | – | – | – | – | – | – | – | – | – | – | – | Number of local lesions (LLN ± SD) [9]: 0.2 and 0.2±0.2; Percentage of inhibition of local lesions ([9]; vs control plants): 98.7% |
| ON=Cc1cc[n+](Cc2ccccc2)cc1 [Py-Bn] | – | > 5000 µg/mL | > 5000 µg/mL and > 17000 µM | > 5000 µg/mL | > 5000 µg/mL and > 17000 µM | > 5000 µg/mL and > 17000 µM | > 5000 µg/mL | > 5000 µg/mL and > 17000 µM | – | – | – | – | – | – | MIC ([5]; ATCC25922, 18 h): 1250 µg/mL and 4260 µM |
| CO/N=C(\C(=O)N[C@@H]1C(=O)N2C(C(=O)O)=C(COC(C)=O)CS[C@H]12)c1csc(N)n1 [Cefotaxime, reference compound] | – | – | – | – | – | – | – | – | – | – | – | – | – | – | MIC ([1]; B. cereus ATCC14579, standards, read-out: MIC): 3.7 µg/mL and 10 µM; MIC ([2]; E. faecalis ATCC29212, standards, read-out: MIC): 29.8 µg/mL and 60 µM; MIC ([3]; S. aureus ATCC25923, standards, read-out: MIC): 3.7 µg/mL and 10 µM; MIC ([4]; L. monocytogenes ATCC7644, standards, read-out: MIC): 3.7 µg/mL and 10 µM; MIC ([5]; ATCC25922, E. coli ATCC25922, standards, read-out: MIC): 0.2 µg/mL and 0.4 µM; MIC ([6]; P. aeruginosa ATCC27853, standards, read-out: MIC): 59.7 µg/mL and 130 µM; MIC ([7]; S. aureus clinical/MRSA, read-out: MIC): > 119 µg/mL; MIC ([7]; S. aureus clinical/MRSA, standards, read-out: MIC): > 250 µM; MIC ([8]; standards): 0.1 µg/mL and 0.2 µM |
| ON=Cc1cc[n+](Cc2ccc(Cl)cc2)cc1 [Py-BnCl] | – | – | – | – | – | – | 2500 µg/mL | 2500 µg/mL and 7630 µM | 5000 µg/mL | 5000 µg/mL and 15300 µM | 1250 µg/mL | 2500 µg/mL and 7630 µM | 310 µg/mL | 5000 µg/mL and 15300 µM | – |
| ON=Cc1cc[n+](Cc2ccc(C(F)(F)F)cc2)cc1 [Py-BnCF3, N-(p-(trifluoromethyl))benzyl-4-hydroxyiminomethylpyridinium bromide] | – | – | – | – | – | – | 1250 µg/mL | 1250 µg/mL and 3460 µM | 1250 µg/mL | 2500 µg/mL and 6920 µM | 630 µg/mL | 2500 µg/mL and 6920 µM | 2500 µg/mL and 6920 µM | 5000 µg/mL and 13800 µM | – |
| ON=Cc1cc[n+](Cc2ccc(C(F)(F)F)cc2)cc1 (as salt: bromide) [Py-BnCF3, N-(p-(trifluoromethyl))benzyl-4-hydroxyiminomethylpyridinium bromide] | 186 to 187 °C | – | – | – | – | – | – | – | – | – | – | – | – | – | – |
| ON=Cc1cc[n+](CCCCCCCCCCBr)cc1.[Br-] [Py-C10Br, N-(10-bromodecyl)-4-hydroxyiminomethylpyridinium bromide] | 103 to 105 °C | 630 µg/mL | 5000 µg/mL and 11800 µM | 630 µg/mL | 5000 µg/mL and 11800 µM | > 5000 µg/mL and > 11800 µM | 310 µg/mL | 5000 µg/mL and 11800 µM | – | – | – | – | – | – | MIC [5, 10]: 630 µg/mL and 1490 µM |
| ON=Cc1cc[n+](Cc2ccc(OC(F)(F)F)cc2)cc1 [Py-BnOCF3, N-(p-trifluoromethoxy)benzyl-4-hydroxyiminomethylpyridinium bromide] | – | – | – | – | – | – | 1250 µg/mL | 2500 µg/mL and 6630 µM | 2500 µg/mL | 2500 µg/mL and 6630 µM | 310 µg/mL | 2500 µg/mL and 6630 µM | 310 µg/mL | 2500 µg/mL and 6630 µM | – |
